Reference: patent US11072607B2, “Inhibitors of RIP1 kinase and methods of use thereof” (priority 2016, dated 2021)

What follows are compounds tested against human RIP1 kinase domain (2-375) (Homo sapiens (Human), UniProt Q13546) (assay: RIP1 kinase inhibition assay (biochemical, Transcreener ADP assay)). Conditions: RIP1 Ki, tight-binding apparent inhibition constant (Ki app, Morrison equation); 50 nM enzyme, 50 uM ATP, 2 hours incubation, fluorescence polarization.
Method: Example 45: RIP1 Kinase Inhibition Assays (Biochemical Assay)
The compounds of the present invention were tested for their capacity to inhibit RIP1K activity as described below.
The ability of the receptor interacting protein kinase (RIPK1) to catalyze the hydrolysis of adenosine-5′-triphosphate (ATP) is monitored using the Transcreener ADP (adenosine-5′-diphosphate) assay (BellBrook Labs). Purified human RIP1 kinase domain (2-375) (50 nM) derived from a baculovirus-infected insect cell expression system is incubated with test compounds for 2 hours in 50 mM Hepes buffer (pH 7.5) containing 30 mM MgCl2, 1 mM dithiothreitol, 50 uM ATP, 0.002% Brij-35, and 0.5% dimethyl sulfoxide (DMSO). Reactions are quenched by the addition of 1× Bell Brooks Stop buffer B (20 mM Hepes (ph 7.5), 40 mM ethylenediaminetetraacetic acid and 0.02% Brij-35) containing an additional 12 mM EDTA and 55 ug/mL ADP2 antibody and 4 nM ADP-AlexaFluor® 633 tracer. The tracer bound to the antibody is displaced by the ADP generated during the RIP1K reaction, which causes a decrease in fluorescence polarization that is measured by laser excitation at 633 nm with a FP microplate reader M1000. Fractional activity was plotted against test article concentration. Using Genedata Screener software (Genedata; Basel, Switzerland), the data were fit to the tight-binding apparent inhibition constant (Ki^app) Morrison equation [Williams, J. W. and Morrison, J. F. (1979) The kinetics of reversible tight-binding inhibition. Methods Enzymol 63: 437-67]. The following equation was used to calculate fractional activity and Ki^app: […]
where [E]T and [I]T are the total concentrations of active enzyme and test article, respectively. […]

human RIP1 kinase domain (2-375), sequence (Q13546 2-375): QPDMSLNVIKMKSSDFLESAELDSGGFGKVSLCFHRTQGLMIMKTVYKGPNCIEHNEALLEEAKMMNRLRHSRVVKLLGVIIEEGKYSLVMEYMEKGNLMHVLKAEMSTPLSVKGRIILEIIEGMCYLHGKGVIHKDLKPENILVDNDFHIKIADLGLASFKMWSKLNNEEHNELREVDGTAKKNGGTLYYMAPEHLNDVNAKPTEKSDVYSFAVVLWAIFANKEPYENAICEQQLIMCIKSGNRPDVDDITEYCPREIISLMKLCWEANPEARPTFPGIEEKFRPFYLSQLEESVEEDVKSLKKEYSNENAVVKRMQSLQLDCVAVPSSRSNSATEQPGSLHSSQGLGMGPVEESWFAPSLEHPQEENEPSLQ

| Ki [nM] | SMILES |
| --- | --- |
| 43 | CN1C(=O)[C@@H](NC(=O)c2nc3n(n2)[C@H](c2ccccc2)C[C@@H]3F)CCn2nccc21 (mixture of isomers) [Example #29, Rac-(5S,7S)-7-fluoro-5-phenyl-N-[(6S)-4-methyl-5-oxo-7,8-dihydro-6H-pyrazolo[1,5-a][1,3]diazepin-6-yl]-6,7-dihydro-5H-pyrrolo[1,2-b][1,2,4]triazole-2-carboxamide] |
| 5 | CN1C(=O)[C@@H](NC(=O)c2nc3n(n2)[C@@H](c2ccccc2)CC3(F)F)COc2ccccc21 (racemic) [Example #42, rac-(5R)-7,7-difluoro-5-phenyl-N-[rac-(3S)-5-methyl-4-oxo-2,3-dihydro-1,5-benzoxazepin-3-yl]-5,6-dihydropyrrolo[1,2-b][1,2,4]triazole-2-carboxamide] |
| 18 | CN1C(=O)[C@@H](NC(=O)c2nc3n(n2)[C@H](c2ccccc2)C[C@@H]3F)COc2ccccc21 (single isomer, unassigned) [Example #30] |
| 35 | Cc1cc2n(n1)CC[C@H](NC(=O)c1nc3n(n1)[C@@H](c1ccccc1)CC3(F)F)C(=O)N2C (racemic) [Example #41, rac-(5R)-7,7-difluoro-5-phenyl-N-[rac-(6S)-2,4-dimethyl-5-oxo-7,8-dihydro-6H-pyrazolo[1,5-a][1,3]diazepin-6-yl]-5,6-dihydropyrrolo[1,2-b][1,2,4]triazole-2-carboxamide] |
| 15 | O=C(N[C@H]1CCc2cc(F)cc(F)c2NC1=O)c1nc2n(n1)[C@@H](c1ccccc1)C[C@@H]2F (mixture of isomers) [Example #31, Rac-(5R,7S)-7-fluoro-5-phenyl-N-[(3S)-7,9-difluoro-2-oxo-1,3,4,5-tetrahydro-1-benzazepin-3-yl]-6,7-dihydro-5H-pyrrolo[1,2-b][1,2,4]triazole-2-carboxamide] |
| 14 | CN1C(=O)[C@@H](NC(=O)c2nc3n(n2)[C@@H](c2ccccc2)C[C@@H]3F)COc2ccccc21 (mixture of isomers) [Example #32, rac-(5R,7S)-7-fluoro-5-phenyl-N-[(3S)-5-methyl-4-oxo-2,3-dihydro-1,5-benzoxazepin-3-yl]-6,7-dihydro-5H-pyrrolo[1,2-b][1,2,4]triazole-2-carboxamide] |
| 24 | CN1C(=O)[C@@H](NC(=O)c2nc3n(n2)[C@H](c2ccccc2)C[C@@H]3F)CCn2nccc21 (racemic) [Example #38, rac-(5S,7S)-7-fluoro-5-phenyl-N-[rac-(6S)-4-methyl-5-oxo-7,8-dihydro-6H-pyrazolo[1,5-a][1,3]diazepin-6-yl]-6,7-dihydro-5H-pyrrolo[1,2-b][1,2,4]triazole-2-carboxamide] |
| 27 | Cc1cc2n(n1)CC[C@H](NC(=O)c1nc3n(n1)[C@H](c1ccccc1)C[C@@H]3F)C(=O)N2C (racemic) [Example #39, rac-(5S,7S)-7-fluoro-5-phenyl-N-[rac-(6S)-2,4-dimethyl-5-oxo-7,8-dihydro-6H-pyrazolo[1,5-a][1,3]diazepin-6-yl]-6,7-dihydro-5H-pyrrolo[1,2-b][1,2,4]triazole-2-carboxamide] |

Same assay, conditions: tight-binding apparent inhibition constant (Ki app, Morrison equation); 50 nM enzyme, 50 uM ATP, 2 hours incubation, fluorescence polarization; read-out: RIP1 Ki

| Ki [nM] | SMILES |
| --- | --- |
| 22 | O=C(N[C@H]1CCc2cc(F)cc(F)c2NC1=O)c1nc2n(n1)C(c1ccccc1)CC2(F)F (stereo partly drawn) [Example #24, 7,7-difluoro-5-phenyl-N-[(3S)-7,9-difluoro-2-oxo-1,3,4,5-tetrahydro-1-benzazepin-3-yl]-5,6-dihydropyrrolo[1,2-b][1,2,4]triazole-2-carboxamide] |
| 44 | CN1C(=O)[C@@H](NC(=O)c2nc3n(n2)[C@H](c2ccccc2)CC3)CCc2ncccc21 (single isomer, unassigned) [Example #18] |
| 22 | CN1C(=O)[C@@H](NC(=O)c2nc3n(n2)CC[C@H]3c2ccccc2F)CCn2nccc21 (single isomer, unassigned) [Example #7] |
| 14 | O=C(N[C@H]1CCc2cc(F)cc(F)c2NC1=O)c1nc2n(n1)C(c1ccccc1)CC2F (stereo partly drawn) [Example #27, 7-fluoro-5-phenyl-N-[(3S)-7,9-difluoro-2-oxo-1,3,4,5-tetrahydro-1-benzazepin-3-yl]-6,7-dihydro-5H-pyrrolo[1,2-b][1,2,4]triazole-2-carboxamide] |
| 15 | CN1C(=O)[C@@H](NC(=O)c2nc3n(n2)[C@H](c2ccccc2)C[C@H]3F)COc2ccccc21 (single isomer, unassigned) [Example #35] |
| 13 | O=C(N[C@H]1CCc2cc(F)cc(F)c2NC1=O)c1nc2n(n1)[C@@H](c1ccccc1)C[C@H]2F (single isomer, unassigned) [Example #33] |
| 29 | CN1C(=O)[C@@H](NC(=O)c2nc3n(n2)[C@@H](c2ccccc2F)CC3)CCc2ncccc21 (single isomer, unassigned) [Example #16] |
| 32 | CN1C(=O)[C@@H](NC(=O)c2nc3n(n2)[C@@H](c2ccccc2)C[C@@H]3F)CCn2nccc21 (single isomer, unassigned) [Example #36] |
| 13 | CN1C(=O)[C@@H](NC(=O)c2ncn(Cc3ccccc3F)n2)CCc2c1cnn2C (single isomer, unassigned) [Example #23] |
| 37 | CN1C(=O)[C@@H](NC(=O)c2nc3n(n2)CC[C@H]3c2ccccc2)CCc2ncccc21 (single isomer, unassigned) [Example #17] |
| 22 | CN1C(=O)[C@@H](NC(=O)c2ncc3cnn(C4CC4)c3n2)COc2ccccc21 [Example #4, 1-cyclopropyl-N-[(3S)-5-methyl-4-oxo-2,3-dihydro-1,5-benzoxazepin-3-yl]pyrazolo[3,4-d]pyrimidine-6-carboxamide] |
| 49 | CN1C(=O)[C@@H](NC(=O)c2nc3n(n2)C(c2ccccc2)CC3F)CCn2nccc21 (stereo partly drawn) [Example #26, 7-fluoro-5-phenyl-N-[(6S)-4-methyl-5-oxo-7,8-dihydro-6H-pyrazolo[1,5-a][1,3]diazepin-6-yl]-6,7-dihydro-5H-pyrrolo[1,2-b][1,2,4]triazole-2-carboxamide] |
| 16 | CN1C(=O)[C@@H](NC(=O)c2ncn(Cc3ccccc3)n2)CCn2nc(CC3CCOC3)cc21 (stereo partly drawn) [Example #19, 1-benzyl-N-[(6S)-4-methyl-5-oxo-2-(tetrahydrofuran-3-ylmethyl)-7,8-dihydro-6H-pyrazolo[1,5-a][1,3]diazepin-6-yl]-1,2,4-triazole-3-carboxamide] |
| 7 | CCC(F)(F)[C@@H]1CCc2nc(C(=O)N[C@H]3COc4ccccc4N(C)C3=O)nn21 (single isomer, unassigned) [Example #44] |
| 41 | O=C(N[C@H]1CCc2ncccc2NC1=O)c1nc2n(n1)[C@@H](c1ccccc1)CC2 (single isomer, unassigned) [Example #13] |
| 29 | CN1C(=O)[C@@H](NC(=O)c2cc3c(cn2)cnn3CC(C)(F)F)COc2ccccc21 [Example #2, 1-(2,2-difluoropropyl)-N-[(3S)-5-methyl-4-oxo-2,3-dihydro-1,5-benzoxazepin-3-yl]pyrazolo[4,3-c]pyridine-6-carboxamide] |
| 42 | CN1C(=O)[C@@H](NC(=O)c2nc3n(n2)CC[C@H]3c2ccccc2F)CCc2ncccc21 (single isomer, unassigned) [Example #15] |
| 11 | O=C(N[C@H]1CCc2cc(F)cc(F)c2NC1=O)c1cc2n(n1)CCOC2c1ccccc1 (stereo partly drawn) [Example #5, 4-phenyl-N-[(3S)-7,9-difluoro-2-oxo-1,3,4,5-tetrahydro-1-benzazepin-3-yl]-6,7-dihydro-4H-pyrazolo[5,1-c][1,4]oxazine-2-carboxamide] |
| 33 | CN1C(=O)[C@@H](NC(=O)c2nc3n(n2)C(c2ccccc2)CC3(F)F)COc2ccccc21 (stereo partly drawn) [Example #25, 7,7-difluoro-5-phenyl-N-[(3S)-5-methyl-4-oxo-2,3-dihydro-1,5-benzoxazepin-3-yl]-5,6-dihydropyrrolo[1,2-b][1,2,4]triazole-2-carboxamide] |
| 14 | CN1C(=O)[C@@H](NC(=O)c2ncn(Cc3ccccc3)n2)CCc2c1cnn2C (single isomer, unassigned) [Example #22] |

| SMILES | Ki [nM] |
| --- | --- |
| O=C(N[C@H]1CCc2ncccc2NC1=O)c1nc2n(n1)[C@H](c1ccccc1F)CC2 (single isomer, unassigned) [Example #14] | 19 |
| Cc1cc2n(n1)CC[C@H](NC(=O)c1nc3n(n1)[C@@H](c1ccccc1)C[C@@H]3F)C(=O)N2C (single isomer, unassigned) [Example #37] | 30 |
| Cc1cc2n(n1)CC[C@H](NC(=O)c1nc3n(n1)CC[C@H]3c1ccccc1F)C(=O)N2C (single isomer, unassigned) [Example #8] | 18 |
| COc1cc2c(cn1)N(C)C(=O)[C@@H](NC(=O)c1nc3n(n1)[C@H](c1ccccc1F)CC3)CC2 (single isomer, unassigned) [Example #11] | 11 |
| CN1C(=O)[C@@H](NC(=O)c2ncc3cnn(CC(C)(F)F)c3n2)COc2ccccc21 [Example #3, 1-(2,2-difluoropropyl)-N-[(3S)-5-methyl-4-oxo-2,3-dihydro-1,5-benzoxazepin-3-yl]pyrazolo[3,4-d]pyrimidine-6-carboxamide] | 35 |
